Assay results as given in patent US12473250B2, “Molecular design of new antibiotics and antibiotic adjuvants against MCR strains” (priority 2019, dated 2025).
Values after ≈ are worked out from the molar mass of the structure shown.

Columns and labels:
[1] = tested on: colistin resistant MCR (+) E. Coli strains; experiment: MIC, broth microdilution, compound alone; format: cell-based; conditions: compound alone
Summary of the method: (§1)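 Modified CLSI broth microdilution; inoculum from 18–20 h TSA colonies adjusted to 0.5 McFarland, ~5×10^5 CFU/mL per well. Plates incubated 24 h at 35 °C; turbidity may be read at OD600. MIC defined as concentration giving 99% inhibition.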

[2] = tested on: colistin resistant MCR (−) E. Cloacae strain 7023456439; experiment: MIC, broth microdilution, compound alone; format: cell-based; conditions: strain 7023456439 E. Cloacae
Summary of the method: as §1

[3] = tested on: colistin resistant MCR (−) E. Coli strains; experiment: MIC, broth microdilution, compound alone; format: cell-based
Summary of the method: as §1

[4] = tested on: colistin resistant MCR (+) E. Coli strains; experiment: Synergy study: colistin MIC in the presence of compound; format: cell-based; conditions: against mcr-1 bacteria; in words
Summary of the method: (§2)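 CLSI broth microdilution with colistin and LC compound added in equal amounts, 2-fold serial dilution, alone or combined at fixed synergy concentration. MIC taken as lowest concentration with no visible growth after 24 hours of incubation.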

[5] = tested on: colistin resistant MCR (−) E. Cloacae strain 7023456439; experiment: as above; format: cell-based; conditions: strain 7023456439 E. Cloacae, compound at 10 μg (Table 2a: 10 ug/ml)
Summary of the method: as §2

[6] = tested on: colistin resistant MCR (−) E. Coli strains; experiment: as above; format: cell-based; conditions: compound at 10 μg (Table 2a: 10 ug/ml)
Summary of the method: as §2

[7] = tested on: 6083655967 [MCR 1+; E.Coli]; experiment: Synergistic study between LC100 or LC101 with B2088; format: cell-based; conditions: for Combination MIC: strain 6083655967, value of each component
Description: (§3) The MICs of the individual drugs and LC compound in combinations were determined using the broth microdilution technique as recommended by the CLSI whereby the two anti-microbial agents were added in an equal amount. (e.g.: 50 μL of Colistin: 50 μL of LC compounds). Diluted media containing compounds and antibiotics will be serially diluted 2-fold, and LC compounds and antibiotics alone or in combination will be assayed at fixed synergy concentration. In all cases, the lowest concentration at which no visible growth occurred was be recorded to be the MIC value of individual and combined antibacterial agents. The results were obtained after 24 hours of incubation.
(§4) Using the combination of LC100 and colistin, the activity of a broad range of strains was further tested (Table 7).

[8] = tested on: Gram positive bacteria (SA and MRSA strains); experiment: Antimicrobial effect on Gram positive bacteria (Table 8); format: cell-based; design: key to antimicrobial effect on Gram positive bacteria: MIC (concentration giving 99% inhibition), concentrations in μg; conditions: compound alone
Description: MIC experiments of the antimicrobial agents were determined by a modified broth microdilution method in accordance with the Clinical and Laboratory Standards Institute (CLSI) guidelines using 96 well culture plates. In brief, serial dilutions of all plates were prepared at different concentrations (μg). The inoculum suspension was prepared by adding isolated colonies from a 18-20 hours on TSA plate into phosphate buffer (0.31 mM, pH 7.2) or in water for injection (BBraun) and adjusting the suspension to a turbidity equivalent to 0.5 McFarland Standard. Each well contained a final bacterial concentration of approximately 5×10^5 colony forming units (CFU)/mL. The plate was covered and incubated at 35° C. for 24 hours. […] For the microdilution plates, turbidity in wells can be measured at OD600 using TECAN infinite M200Pro. MIC was determined as […] concentration that gives a 99 percent inhibition.
The antimicrobial activity of the inventive combination was also tested against Gram positive bacteria, including the multi-drug resistant strains, such as MRSA. […] This means the combination of LC100/LC101 with colistin has broad antimicrobial spectrum, being active against both Gram positive and Gram negative bacteria.

[9] = Calcein leakage from large unilamellar vesicles; conditions: vesicles of 100 nm, DOPE/DOPG=3/1
Excerpt: FIG. 20 refers to a graph showing calcein leakage of LC100 and LC101 using large unilamellar vesicles of 100 nm. The lipid composition of the vesicle is DOPE/DOPG=3/1, mimicking the bacterial inner membrane. […] Further increase of LC100 or LC101 leads to decrease in the florescence because of a fluorescence quenching effect.

various pathogens = experiment: organism not typed; format: cell-based
Description: as §3, §4

[10] = tested on: MCR positive E. coli Clinical isolate 6083655967; format: in vivo; conditions: neutropenic mice, i.p. 1 hour after infection, 6 hours after treatment; colistin 10 mg/kg, LC100 50 mg/kg, meropenem 100 mg/kg, combination 50 + 10 mg/kg
Description: FIG. 21 refers to graphs showing the efficacy testing of combination of LC100 and Colistin in neutropenic mouse thigh infection model infected with MCR positive E. coli Clinical isolate 6083655967. Starting inoculum was 1.87×10^6, N=3. “Combination” refers to Colistin 10 mg/kg+LC100 50 mg/kg. Each treatment was done intraperitoneally 1 hour after infection. 6 hours after treatment, mouse thigh tissues were homogenized for viable CFU.
The combination of colistin and antimicrobial peptide (LC100) was tested against E. coli clinical isolate MCR-positive strain 6083655967 in a neutropenic mouse thigh infection model. C57BL/6 mice were rendered neutropenic by cyclophosphamide, dosed at 150 and 100 mg kg-1 delivered on days −4 and −1 prior to infection. Bacteria were suspended in sterile saline and adjusted to a concentration of ˜1.876×10^6 CFU per infection site (100 micro-liters) and injected intramuscularly into the right thigh of five mice per treatment group. At 1 h post infection, mice received colistin ([…], i.p. n=5), LC100 (50 mg kg-1, i.p. n=5), untreated (n=5), or the combination (n=5). Mice were euthanized 6 h after infection; thigh tissue was aseptically collected, homogenized, serially diluted in PBS and plated onto solid TSA supplemented plates. Plates were incubated overnight at 37° C. and colonies were quantified to determine bacterial load.
To evaluate the in vivo efficacy of the combination of LC100 and colistin, a neutropenic mouse thigh infection model was used. 30 mice were classed into 5 groups: control, colistin at 10 mg/kg, LC100 at 50 mg/kg, meropenem at 100 mg/kg and combination of 50 mg/kg of LC100 and 10 mg/kg of colistin. Each treatment was administered intraperitoneally 1 hour after infection. The starting inoculum was 1.87×10^6, and 6 hours after treatment, mouse thigh tissues were homogenized for viable CFU. […] As neutropenic mice were used in the study, the 1.2 log reduction in bacterial burden is due to the combination of LC100 and colistin rather than the immune system of the mouse.

COC(=O)C(CCCNC(=N)N)NC(=O)COc1ccc(/C=C/C(=O)c2ccc(OCC(=O)NC(CCCNC(=N)N)C(=O)OC)c(CC=C(C)C)c2O)cc1 (stereo not shown) [LC101]
MIC ([1]; strain 6075066346, MCR (+)): 25 µg/mL (≈ 32 µM)
MIC ([1]; strain 6083655967, MCR (+)): 25 µg/mL (≈ 32 µM)
MIC ([1]; strain 6103645107, MCR (+)): 25 µg/mL (≈ 32 µM)
MIC ([1]; strain 6123520276, MCR (+)): 50 µg/mL (≈ 64 µM)
MIC ([1]; strain 7013177695, MCR (+)): 25 µg/mL (≈ 32 µM)
MIC ([1]; strain 7023436560, MCR (+)): 25 µg/mL (≈ 32 µM)
MIC ([1]; strain 7023444207, MCR (+)): 25 µg/mL (≈ 32 µM)
MIC [2]: >50 µg/mL
MIC ([3]; strain 6083672926, MCR (−)): 25 µg/mL (≈ 32 µM)
MIC ([3]; strain 7023446108, MCR (−)): 25 µg/mL (≈ 32 µM)
MIC ([3]; strain 7033607097, MCR (−)): 50 µg/mL (≈ 64 µM)
synergy with colistin [4]: excellent synergy
Colistin MIC in the presence of the compound [5]: >12.5 µg/mL
Colistin MIC in the presence of the compound ([6]; strain 6083672926, MCR(−)): <0.195 µg/mL
Colistin MIC in the presence of the compound ([6]; strain 7023446108, MCR(−)): <0.195 µg/mL
Colistin MIC in the presence of the compound ([6]; strain 7033607097, MCR(−)): <0.195 µg/mL
Combination MIC ([7]; combination B2088 (Ac) + LC 101): 2 µg/mL
Combination MIC ([7]; combination B2088 + LC 101): 2 µg/mL
level of synergistic effect with B2088 ([7]; killing E. coli with the mcr-1 mutation): 1 µg/mL
activity against Gram positive strains ([8]; in words): good activity
antimicrobial effect on Gram positive bacteria ([8]; strain MRSA ATCC 43300): 6.25
antimicrobial effect on Gram positive bacteria ([8]; strain MRSA ATCC 700699): 6.25
antimicrobial effect on Gram positive bacteria ([8]; strain MRSA DM 21455): 3.125
antimicrobial effect on Gram positive bacteria ([8]; strain SA ATCC 6538): 3.125
antimicrobial effect on Gram positive bacteria ([8]; strain SA ATCC 29213): 3.125
antimicrobial effect on Gram positive bacteria ([8]; strain SA DM 4400R): 3.125
calcein leakage / disruption of vesicles [9]: significant florescence was detected

C[C@@H](O)[C@H]1C(=O)N2C(C(=O)O)=C(S[C@@H]3CN[C@H](C(=O)N(C)C)C3)[C@H](C)[C@H]12 [meropenem]
MIC (various pathogens; ACBA 1010 (CI)): 1.56 µg/mL
MIC (various pathogens; Escherichia coli, 6083655967 [MCR 1+, E. Coli]): < 0.0975 µg/mL
MIC (various pathogens; Escherichia coli, 6093560257 [MCR 1+, E. Coli, NDM-1]): > 50 µg/mL
MIC (various pathogens; Escherichia coli, 6123520276 [MCR 1+, E. Coli]): < 0.0975 µg/mL
MIC (various pathogens; Escherichia coli, 7023436560 [MCR 1+, E. Coli]): < 0.0975 µg/mL
MIC (various pathogens; Escherichia coli, 7023444207 [MCR 1+, E. Coli]): < 0.0975 µg/mL
MIC (various pathogens; Escherichia coli, 7023446108 [MCR 1−, E. Coli]): < 0.0975 µg/mL
MIC (various pathogens; Escherichia coli, 7033607097 [MCR 1−, E. Coli]): < 0.0975 µg/mL
MIC (various pathogens; Escherichia coli, 7103531927 [MCR 1+, E. Coli, KPC+]): 25 µg/mL
MIC (various pathogens; Escherichia coli, 7113636863 [MCR 1+, E. Coli, NDM-1]): 50 µg/mL
MIC (various pathogens; Escherichia coli, E. Coli CRE 11804): > 25 µg/mL
MIC (various pathogens; Escherichia coli, E. Coli CRE 17232, ⅙ MHB): < 0.195 µg/mL
MIC (various pathogens; Escherichia coli, E. Coli CRE 17528): 1.56 µg/mL
MIC (various pathogens; KLPN CRE 7955): > 25 µg/mL
MIC (various pathogens; KLPN CRE 16260): > 50 µg/mL
MIC (various pathogens; KLPN CRE 27025): > 50 µg/mL
MIC (various pathogens; KLPN CRE 55301): 0.39 µg/mL
MIC (various pathogens; PAE DM 4150): 1.56 µg/mL
MIC (various pathogens; PAE DM 23155): 0.195 µg/mL
MIC (various pathogens; PAE DM 23257): 0.78 µg/mL
MIC (various pathogens; PAE DM 23376): 0.39 µg/mL
MIC (various pathogens; PAE DR 4877): 1.56 µg/mL
MIC (various pathogens; PAE DR 5790): 6.25 µg/mL
MIC (various pathogens; PAE DU 14476): > 25 µg/mL
reduction in bacterial burden [10]: 2 log
